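Grown in 96-well plates, cells were treated for 48 hours with each compound at five concentrations. Insufficient inhibition: endpoint recorded as highest concentration tested. GI50 = concentration required for 50% inhibition of growth.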 Calls of active or inactive are those of the source. Rule as the data show it: active = GI50 up to about 1.1 µM and inactive = higher.
How the values were obtained:
Assay in all cases: growth of human tumour cells (NCI), 48 h
[1] = tested on: 786-0
[2] = tested on: A498
[3] = tested on: A549
[4] = tested on: ACHN
[5] = tested on: BT-549
[6] = tested on: CAKI-1
[7] = tested on: CCRF-CEM
[8] = tested on: COLO 205
[9] = tested on: DU-145
[10] = tested on: EKVX
[11] = tested on: HCC 2998
[12] = tested on: HCT-116
[13] = tested on: HCT-15
[14] = tested on: HL-60
[15] = tested on: HOP-62
[16] = tested on: HOP-92
[17] = tested on: HT-29
[18] = tested on: Hs-578T
[19] = tested on: IGROV-1
[20] = tested on: K562
[21] = tested on: KM12
[22] = tested on: LOX IMVI
[23] = tested on: MCF7
[24] = tested on: MDA-MB-231
[25] = tested on: MDA-MB-435
[26] = tested on: MDA-N
[27] = tested on: MOLT-4
[28] = tested on: Malme-3M
[29] = tested on: NCI-H226
[30] = tested on: NCI-H23
[31] = tested on: NCI-H460
[32] = tested on: NCI-H522
[33] = tested on: NCI/ADR-RES
[34] = tested on: OVCAR-3
[35] = tested on: OVCAR-4
[36] = tested on: OVCAR-5
[37] = tested on: OVCAR-8
[38] = tested on: PC-3
[39] = tested on: RPMI-8226
[40] = tested on: RXF 393
[41] = tested on: SF-268
[42] = tested on: SF-295
[43] = tested on: SF-539
[44] = tested on: SK-MEL-28
[45] = tested on: SK-MEL-5
[46] = tested on: SK-OV-3
[47] = tested on: SN12C
[48] = tested on: SNB-75
[49] = tested on: SR
[50] = tested on: SW-620
[51] = tested on: T47D
[52] = tested on: TK-10
[53] = tested on: U-251
[54] = tested on: UACC-257
[55] = tested on: UACC-62
[56] = tested on: UO-31
[57] = tested on: M14
[58] = tested on: SK-MEL-2
[59] = tested on: SNB-19

## COC(=O)c1c2c(cc3c1CC1(Cc4ccccc4C1)C3)CCC2
[1]
  GI50: 27.9 µM (inactive)
[2]
  GI50: 25.9 µM (inactive)
[3]
  GI50: 28.7 µM (inactive)
[4]
  GI50: 23.8 µM (inactive)
[5]
  GI50: 20.9 µM (inactive)
[6]
  GI50: 19.8 µM (inactive)
[7]
  GI50: 17.2 µM (inactive)
[8]
  GI50: 16.6 µM (inactive)
[9]
  GI50: 47.4 µM (inactive)
[10]
  GI50: 25.6 µM (inactive)
[11]
  GI50: 33.1 µM (inactive)
[12]
  GI50: 21.7 µM (inactive)
[13]
  GI50: 23 µM
[14]
  GI50: 17.3 µM (inactive)
[15]
  GI50: 28.2 µM (inactive)
[16]
  GI50: 36.9 µM (inactive)
[17]
  GI50: 13.8 µM (inactive)
[18]
  GI50: 22.9 µM (inactive)
[19]
  GI50: 22.5 µM (inactive)
[20]
  GI50: 4.32 µM (inactive)
[21]
  GI50: 13 µM (inactive)
[22]
  GI50: 15.9 µM (inactive)
[23]
  GI50: 6.38 µM (inactive)
[24]
  GI50: 14.8 µM (inactive)
[25]
  GI50: 8.91 µM (inactive)
[26]
  GI50: 6.27 µM (inactive)
[27]
  GI50: 17.1 µM (inactive)
[28]
  GI50: 20.2 µM (inactive)
[29]
  GI50: 31.7 µM (inactive)
[30]
  GI50: 31.3 µM (inactive)
[31]
  GI50: 30.5 µM (inactive)
[32]
  GI50: 14 µM (inactive)
[33]
  GI50: 22.2 µM (inactive)
[34]
  GI50: 18.9 µM (inactive)
[35]
  GI50: 37.8 µM (inactive)
[36]
  GI50: 25.2 µM (inactive)
[37]
  GI50: 35.2 µM (inactive)
[38]
  GI50: 13.8 µM (inactive)
[39]
  GI50: 17.9 µM (inactive)
[40]
  GI50: 16.9 µM (inactive)
[41]
  GI50: 36.6 µM (inactive)
[42]
  GI50: 24.5 µM (inactive)
[43]
  GI50: 39.5 µM (inactive)
[44]
  GI50: 24.2 µM (inactive)
[45]
  GI50: 13.5 µM (inactive)
[46]
  GI50: 31.4 µM (inactive)
[47]
  GI50: 16.9 µM (inactive)
[48]
  GI50: 26.2 µM (inactive)
[49]
  GI50: 16.5 µM (inactive)
[50]
  GI50: 14.2 µM (inactive)
[51]
  GI50: 15.8 µM (inactive)
[52]
  GI50: 61.8 µM (inactive)
[53]
  GI50: 20.9 µM (inactive)
[54]
  GI50: 17.6 µM (inactive)
[55]
  GI50: 20.9 µM (inactive)
[56]
  GI50: 13 µM (inactive)

## O=C1c2ccccc2NC(c2cc(Cl)cc(Cl)c2O)N1CCc1ccccn1 (stereo unspecified)
[1]
  GI50: 60.1 µM (inactive)
[2]
  GI50: > 100 µM (inactive)
[3]
  GI50: 48.6 µM (inactive)
[4]
  GI50: 87.3 µM (inactive)
[5]
  GI50: > 100 µM (inactive)
[6]
  GI50: > 100 µM (inactive)
[8]
  GI50: > 100 µM (inactive)
[9]
  GI50: 46.7 µM (inactive)
[10]
  GI50: 62.5 µM (inactive)
[11]
  GI50: 53.2 µM (inactive)
[12]
  GI50: 67 µM (inactive)
[13]
  GI50: 86.3 µM
[14]
  GI50: > 100 µM (inactive)
[15]
  GI50: > 100 µM (inactive)
[16]
  GI50: 52.7 µM (inactive)
[17]
  GI50: 80.9 µM (inactive)
[18]
  GI50: 55.8 µM (inactive)
[19]
  GI50: > 100 µM (inactive)
[20]
  GI50: > 100 µM (inactive)
[21]
  GI50: 64 µM (inactive)
[22]
  GI50: > 100 µM (inactive)
[57]
  GI50: 64.4 µM (inactive)
[23]
  GI50: 61 µM (inactive)
[24]
  GI50: > 100 µM (inactive)
[25]
  GI50: 68.1 µM (inactive)
[26]
  GI50: 97.9 µM (inactive)
[28]
  GI50: 30.8 µM (inactive)
[29]
  GI50: > 100 µM (inactive)
[30]
  GI50: > 100 µM (inactive)
[31]
  GI50: 56.2 µM (inactive)
[32]
  GI50: 41.9 µM (inactive)
[33]
  GI50: 60.4 µM (inactive)
[34]
  GI50: > 100 µM (inactive)
[35]
  GI50: 36.8 µM (inactive)
[36]
  GI50: > 100 µM (inactive)
[37]
  GI50: 80.2 µM (inactive)
[38]
  GI50: 24 µM (inactive)
[39]
  GI50: 34.8 µM (inactive)
[40]
  GI50: 44.7 µM (inactive)
[41]
  GI50: > 100 µM (inactive)
[42]
  GI50: > 100 µM (inactive)
[43]
  GI50: > 100 µM (inactive)
[44]
  GI50: > 100 µM (inactive)
[58]
  GI50: > 100 µM (inactive)
[45]
  GI50: > 100 µM (inactive)
[46]
  GI50: > 100 µM (inactive)
[47]
  GI50: 69.8 µM (inactive)
[59]
  GI50: 88.9 µM (inactive)
[48]
  GI50: 42.6 µM (inactive)
[49]
  GI50: 47.5 µM (inactive)
[50]
  GI50: 76.7 µM (inactive)
[51]
  GI50: 26.7 µM (inactive)
[52]
  GI50: > 100 µM (inactive)
[53]
  GI50: 39.8 µM (inactive)
[54]
  GI50: 97.9 µM (inactive)
[55]
  GI50: > 100 µM (inactive)
[56]
  GI50: > 100 µM (inactive)

## O=c1cc(/C=C/c2ccc(O)c(O)c2)oc(/C=C/c2ccc(O)c(O)c2)c1
[1]
  GI50: 5.75 µM (inactive)
[2]
  GI50: 3.84 µM (inactive)
[3]
  GI50: 13.4 µM (inactive)
[4]
  GI50: 4.84 µM (inactive)
[5]
  GI50: 4.8 µM (inactive)
[6]
  GI50: 3.37 µM (inactive)
[7]
  GI50: 1.24 µM (inactive)
[8]
  GI50: 8.2 µM (inactive)
[9]
  GI50: 4.55 µM (inactive)
[10]
  GI50: 6.53 µM (inactive)
[11]
  GI50: 2.49 µM (inactive)
[12]
  GI50: 4.53 µM (inactive)
[13]
  GI50: 5.68 µM
[15]
  GI50: 7.53 µM (inactive)
[16]
  GI50: 2.48 µM (inactive)
[17]
  GI50: 7.91 µM (inactive)
[18]
  GI50: 4.09 µM (inactive)
[19]
  GI50: 4.17 µM (inactive)
[20]
  GI50: 2.11 µM (inactive)
[21]
  GI50: 4.37 µM (inactive)
[22]
  GI50: 3.61 µM (inactive)
[57]
  GI50: 4.52 µM (inactive)
[23]
  GI50: 3.29 µM (inactive)
[24]
  GI50: 4.44 µM (inactive)
[25]
  GI50: 1.43 µM (inactive)
[26]
  GI50: 2.24 µM (inactive)
[27]
  GI50: 1.83 µM (inactive)
[28]
  GI50: 5.06 µM (inactive)
[29]
  GI50: 5.16 µM (inactive)
[30]
  GI50: 4.57 µM (inactive)
[31]
  GI50: 5.02 µM (inactive)
[32]
  GI50: 1.24 µM (inactive)
[33]
  GI50: 26.1 µM (inactive)
[34]
  GI50: 3.19 µM (inactive)
[35]
  GI50: 3.78 µM (inactive)
[36]
  GI50: 17.2 µM (inactive)
[37]
  GI50: 4.4 µM (inactive)
[38]
  GI50: 5.73 µM (inactive)
[39]
  GI50: 6.58 µM (inactive)
[40]
  GI50: 2.72 µM (inactive)
[41]
  GI50: 2.17 µM (inactive)
[42]
  GI50: 9.06 µM (inactive)
[43]
  GI50: 2.75 µM (inactive)
[44]
  GI50: 11.9 µM (inactive)
[58]
  GI50: 2.65 µM (inactive)
[45]
  GI50: 3.19 µM (inactive)
[46]
  GI50: 9.02 µM (inactive)
[47]
  GI50: 4.29 µM (inactive)
[59]
  GI50: 3.82 µM (inactive)
[48]
  GI50: 4.41 µM (inactive)
[49]
  GI50: 1.07 µM (active)
[50]
  GI50: 4.83 µM (inactive)
[51]
  GI50: 1.98 µM (inactive)
[52]
  GI50: 7.33 µM (inactive)
[53]
  GI50: 2.74 µM (inactive)
[54]
  GI50: 5.31 µM (inactive)
[55]
  GI50: 2.37 µM (inactive)
[56]
  GI50: 4.66 µM (inactive)

Source: ChEMBL document CHEMBL1201862, “PubChem BioAssay data set” (2004)
